Test system: THP1-Dual™ reporter cells
Assay: THP1-Dual cell reporter assay (IRF-Lucia luciferase reporter)
Type: cell-based, human
Details: for EC50: Homo sapiens, THP1-Dual, free compounds, 24 h, Lucia reporter signal, read-out: EC50; for EC50 (ng/mL): ADCs: drug linker conjugated to a targeted mAb, 48 h
Method: THP1-Dual™ Cell Reporter Assay
Potency of compounds and ADCs was evaluated using the THP1-Dual™ cells (InvivoGen PN: thpd-nfis [also referred to as THP1 dual reporter cells]), which contain an IRF-Lucia luciferase reporter. Cells were cultured in RPMI-1640 (Gibco) with 10% heat-inactivated fetal bovine serum, Pen-Strep (100 U/mL-100 μg/mL, Gibco), HEPES (10 mM, Gibco)), sodium pyruvate (1 mM, Gibco), MEM non-essential amino acids (1×, Gibco), GlutaMAX (1×, Gibco), and beta-mercaptoethanol (55 μM, Gibco). Cells were plated in a 96-well flat bottom tissue culture-treated clear polystyrene plate (Corning Costar #3596) at ˜100,000 cells per well in 200 μL with the indicated concentration of the compound or ADC. The supernatant was harvested at 24 hours (compounds) or 48 hours (ADC) post plating for the reporter assay, or as indicated. To measure Lucia reporter signal, 10 μL of the supernatant was combined with 40 μL of QUANTI-Luc™ Luminescence assay reagent (Invivogen PN: rep-qlc1) in a 96-well clear flat bottom tissue culture-treated black polystyrene plate (Corning Costar #3603) and read on a Perkin Elmer Envision plate reader.
STING agonist compounds were assessed for their ability to activate THP1-Dual™ reporter cells, a human monocytic cell line in which type I interferon (IRF) signaling can be monitored via a secreted luciferase reporter protein (Lucia). THP1-Dual™ cells were treated with increasing concentrations of the agonists for 24h, then supernatants were harvested and the Lucia reporter signal was quantified using QUANTI-Luc™ Luminescence assay reagent.

EC50 [µM] | SMILES | EC50 (ng/mL)
> 10 | COc1cc(C(N)=O)cc2nc(NC(=O)c3cc(Cl)nn3C)n(C/C=C/Cn3c(NC(=O)c4cc(Cl)nn4C)nc4cc(C(N)=O)cc(O)c43)c12 [Compound 50] | 
> 10 | COc1cc(C(=O)Nc2nc3cc(C(N)=O)cc(O)c3n2C/C=C/Cn2c(NC(=O)c3cc(OC)nn3C)nc3cc(C(N)=O)cc(OC)c32)n(C)n1 [Compound 51] | 
> 10 | CCn1nc(C(F)(F)F)cc1C(=O)Nc1nc2cc(C(N)=O)cc(O)c2n1C/C=C/Cn1c(NC(=O)c2cc(C(F)(F)F)nn2CC)nc2cc(C(N)=O)cc(OC)c21 [Compound 52] | 
> 10 | CCc1cc(C(=O)Nc2nc3cc(C(N)=O)cc(O)c3n2C/C=C/Cn2c(NC(=O)c3cc(CC)nn3C)nc3cc(C(N)=O)cc(OC)c32)n(C)n1 [Compound 53] | 
> 10 | COc1cc(C(N)=O)cc2nc(NC(=O)c3cc(C)nn3C)n(C/C=C/Cn3c(NC(=O)c4cc(C)nn4C)nc4cc(C(N)=O)cc(O)c43)c12 [Compound 54] | 
> 10 | COc1cc(C(N)=O)cc2nc(NC(=O)c3cc(C)n[nH]3)n(C/C=C/Cn3c(NC(=O)c4cc(C)n[nH]4)nc4cc(C(N)=O)cc(O)c43)c12 [Compound 55] | 
> 10 | COc1cc(C(N)=O)cc2nc(NC(=O)C3CCCC3)n(C/C=C/Cn3c(NC(=O)C4CCCC4)nc4cc(C(N)=O)cc(O)c43)c12 [Compound 56] | 
> 10 | COc1cc(C(N)=O)cc2nc(NC(=O)C3CCC3)n(C/C=C/Cn3c(NC(=O)C4CCC4)nc4cc(C(N)=O)cc(O)c43)c12 [Compound 57] | 
> 10 | COc1cc(C(N)=O)cc2nc(NC(=O)c3cc(C)no3)n(C/C=C/Cn3c(NC(=O)c4cc(C)no4)nc4cc(C(N)=O)cc(O)c43)c12 [Compound 58] | 
> 10 | COc1cc(C(N)=O)cc2nc(NC(=O)c3ccno3)n(C/C=C/Cn3c(NC(=O)c4ccno4)nc4cc(C(N)=O)cc(O)c43)c12 [Compound 59] | 
> 10 | COc1cc(C(N)=O)cc2nc(NC(=O)c3cc(C)ns3)n(C/C=C/Cn3c(NC(=O)c4cc(C)ns4)nc4cc(C(N)=O)cc(O)c43)c12 [Compound 60] | 
> 10 | CCn1nc(C)cc1C(=O)Nc1nc2cc(C(=O)OC)cc(O)c2n1C/C=C/Cn1c(NC(=O)c2cc(C)nn2CC)nc2cc(C(=O)OC)cc(OC)c21 [Compound 62, methyl (E)-2-(1-ethyl-3-methyl-1H-pyrazole-5-carboxamido)-1-(4-(2-(1-ethyl-3-methyl-1H-pyrazole-5-carboxamido)-7-hydroxy-5-(methoxycarbonyl)-1H-benzo[d]imidazol-1-yl)but-2-en-1-yl)-7-methoxy-1H-benzo[d]imidazole-5-carboxylate] | 
2.51 | CCn1nc(C)cc1C(=O)Nc1nc2cc(C(=O)O)cc(O)c2n1C/C=C/Cn1c(NC(=O)c2cc(C)nn2CC)nc2cc(C(=O)O)cc(OC)c21 [Compound 63, (E)-1-(4-(5-carboxy-2-(1-ethyl-3-methyl-1H-pyrazole-5-carboxamido)-7-hydroxy-1H-benzo[d]imidazol-1-yl)but-2-en-1-yl)-2-(1-ethyl-3-methyl-1H-pyrazole-5-carboxamido)-7-methoxy-1H-benzo[d]imidazole-5-carboxylic acid] | 
1.16 | CCn1nc(C)cc1C(=O)Nc1nc2cc(C(=O)OC)cc(OC)c2n1C/C=C/Cn1c(NC(=O)c2cc(C)nn2CC)nc2cc(C(=O)OC)cc(OCCCNC)c21 [Compound 66b] | 
0.0016 | CCn1nc(C)cc1C(=O)Nc1nc2cc(C(N)=O)cc(O)c2n1C/C=C/Cn1c(NC(=O)c2cc(C)nn2CC)nc2cc(C(N)=O)cc(OCCCN3CCOCC3)c21 [Compound 70] | 
0.0701 | CCn1nc(C)cc1C(=O)Nc1nc2cc(C(N)=O)cc(OC)c2n1C/C=C/Cn1c(NC(=O)c2cc(C)nn2CC)nc2cc(C(N)=O)cc(OCCCN(C)C(=O)[C@H](CC(=O)O)NC(=O)CCN3C(=O)CC(SC[C@H](N)C(=O)O)C3=O)c21 (stereo partly drawn) [Compound 71] | 
0.216 | CCn1nc(C)cc1C(=O)Nc1nc2cc(C(N)=O)cc(OC)c2n1C/C=C/Cn1c(NC(=O)c2cc(C)nn2CC)nc2cc(C(N)=O)cc(OCCCN(C)C(=O)CNC(=O)CCN3C(=O)CC(SC[C@H](N)C(=O)O)C3=O)c21 (stereo partly drawn) [Compound 73] | 
0.036 | CCn1nc(C)cc1C(=O)Nc1nc2cc(C(N)=O)cc(OC)c2n1C/C=C/Cn1c(NC(=O)c2cc(C)nn2CC)nc2cc(C(N)=O)cc(OCCCN(C)C(=O)[C@H](C)NC(=O)CCN3C(=O)CC(SC[C@H](N)C(=O)O)C3=O)c21 (stereo partly drawn) [Compound 74] | 
0.0577 | CCn1nc(C)cc1C(=O)Nc1nc2cc(C(N)=O)cc(OC)c2n1C/C=C/Cn1c(NC(=O)c2cc(C)nn2CC)nc2cc(C(N)=O)cc(OCCCN(C)C(=O)[C@H](CO)NC(=O)CCN3C(=O)CC(SC[C@H](N)C(=O)O)C3=O)c21 (stereo partly drawn) [Compound 75] | 
0.0588 | CCn1nc(C)cc1C(=O)Nc1nc2cc(C(N)=O)cc(OC)c2n1C/C=C/Cn1c(NC(=O)c2cc(C)nn2CC)nc2cc(C(N)=O)cc(OCCCN(C)C(=O)[C@H](COC)NC(=O)CCN3C(=O)CC(SC[C@H](N)C(=O)O)C3=O)c21 (stereo partly drawn) [Compound 76] | 

The remaining lines, values behind:

SMILES | EC50 [µM] | EC50 (ng/mL)
COc1cc(C(N)=O)cc2nc(NC(=O)c3nc(C)cs3)n(C/C=C/Cn3c(NC(=O)c4nc(C)cs4)nc4cc(C(N)=O)cc(O)c43)c12 [Compound 38] | > 10 | 
COc1cc(C(N)=O)cc2nc(NC(=O)c3cc(C)on3)n(C/C=C/Cn3c(NC(=O)c4cc(C)on4)nc4cc(C(N)=O)cc(O)c43)c12 [Compound 39] | > 10 | 
COc1cc(C(N)=O)cc2nc(NC(=O)c3cc(C)sn3)n(C/C=C/Cn3c(NC(=O)c4cc(C)sn4)nc4cc(C(N)=O)cc(O)c43)c12 [Compound 40] | > 10 | 
CCn1cccc1C(=O)Nc1nc2cc(C(N)=O)cc(O)c2n1C/C=C/Cn1c(NC(=O)c2cccn2CC)nc2cc(C(N)=O)cc(OC)c21 [Compound 41] | > 10 | 
COc1cc(C(N)=O)cc2nc(NC(=O)c3cccnn3)n(C/C=C/Cn3c(NC(=O)c4cccnn4)nc4cc(C(N)=O)cc(O)c43)c12 [Compound 42] | > 10 | 
COc1cc(C(N)=O)cc2nc(NC(=O)c3ccnnc3)n(C/C=C/Cn3c(NC(=O)c4ccnnc4)nc4cc(C(N)=O)cc(O)c43)c12 [Compound 43] | > 10 | 
COc1cc(C(N)=O)cc2nc(NC(=O)c3ncccn3)n(C/C=C/Cn3c(NC(=O)c4ncccn4)nc4cc(C(N)=O)cc(O)c43)c12 [Compound 44] | > 10 | 
COc1cc(C(N)=O)cc2nc(NC(=O)c3ccncn3)n(C/C=C/Cn3c(NC(=O)c4ccncn4)nc4cc(C(N)=O)cc(O)c43)c12 [Compound 45] | > 10 | 
COc1cc(C(N)=O)cc2nc(NC(=O)c3cnccn3)n(C/C=C/Cn3c(NC(=O)c4cnccn4)nc4cc(C(N)=O)cc(O)c43)c12 [Compound 46] | > 10 | 
COc1cc(C(N)=O)cc2nc(NC(=O)Cn3cccn3)n(C/C=C/Cn3c(NC(=O)Cn4cccn4)nc4cc(C(N)=O)cc(O)c43)c12 [Compound 47] | > 10 | 
COc1cc(C(N)=O)cc2nc(NC(=O)Cn3nc(C)cc3C)n(C/C=C/Cn3c(NC(=O)Cn4nc(C)cc4C)nc4cc(C(N)=O)cc(O)c43)c12 [Compound 48] | > 10 | 
COc1cc(C(N)=O)cc2nc(NC(=O)C(C)n3cc(Cl)cn3)n(C/C=C/Cn3c(NC(=O)C(C)n4cc(Cl)cn4)nc4cc(C(N)=O)cc(O)c43)c12 (stereo not drawn) [Compound 49] | > 10 | 
CCn1nc(C)cc1C(=O)Nc1nc2cc(C(=O)OC)cc(OC)c2n1C/C=C/Cn1c(NC(=O)c2cc(C)nn2CC)nc2cc(C(=O)OC)cc(OCCCN(C)C(=O)CCN3C(=O)C=CC3=O)c21 [Compound 66, methyl (E)-7-(3-(3-(2,5-dioxo-2,5-dihydro-1H-pyrrol-1-yl)-N-methylpropanamido)propoxy)-2-(1-ethyl-3-methyl-1H-pyrazole-5-carboxamido)-1-(4-(2-(1-ethyl-3-methyl-1H-pyrazole-5-carboxamido)-7-methoxy-5-(methoxycarbonyl)-1H-benzo[d]imidazol-1-yl)but-2-en-1-yl)-1H-benzo[d]imidazole-5-carboxylate] |  | >10,000 ng/mL
CCn1nc(C)cc1C(=O)Nc1nc2cc(C(=O)OC)cc(OC)c2n1C/C=C/Cn1c(NC(=O)c2cc(C)nn2CC)nc2cc(C(=O)OC)cc(OCCCN(C)C(=O)OCc3ccc(O[C@@H]4O[C@H](C(=O)O)[C@@H](O)[C@H](O)[C@H]4O)cc3NC(=O)CCNC(=O)CCN3C(=O)C=CC3=O)c21 [Compound 67] |  | >10,000 ng/mL
CCn1nc(C)cc1C(=O)Nc1nc2cc(C(=O)O)cc(OC)c2n1C/C=C/Cn1c(NC(=O)c2cc(C)nn2CC)nc2cc(C(=O)O)cc(OCCCN(C)C(=O)CCN3C(=O)C=CC3=O)c21 [Compound 68, (E)-1-(4-(5-carboxy-2-(1-ethyl-3-methyl-1H-pyrazole-5-carboxamido)-7-methoxy-1H-benzo[d]imidazol-1-yl)but-2-en-1-yl)-7-(3-(3-(2,5-dioxo-2,5-dihydro-1H-pyrrol-1-yl)-N-methylpropanamido)propoxy)-2-(1-ethyl-3-methyl-1H-pyrazole-5-carboxamido)-1H-benzo[d]imidazole-5-carboxylic acid] |  | >10,000 ng/mL
CCn1nc(C)cc1C(=O)Nc1nc2cc(C(=O)O)cc(OC)c2n1C/C=C/Cn1c(NC(=O)c2cc(C)nn2CC)nc2cc(C(=O)O)cc(OCCCN(C)C(=O)OCc3ccc(O[C@@H]4O[C@H](C(=O)O)[C@@H](O)[C@H](O)[C@H]4O)cc3NC(=O)CCNC(=O)CCN3C(=O)C=CC3=O)c21 [Compound 69] |  | >10,000 ng/mL
